Test results taken from patent US8029764B2, “Methods for detection of colorectal cancer” (The Johns Hopkins University, priority 2001, dated 2011).

Test system: colorectal tissue transcripts
Assay: SAGE of normal, adenoma and cancer colorectal tissue (transcript tag counts)
Design: species or system human
Excerpt: In an effort to identify potential molecular markers of early colorectal tumors, we have here analyzed gene expression in benign and malignant colorectal tumors in an unbiased and comprehensive fashion. We used SAGE to analyze global gene expression in normal, benign and malignant colorectal tissue. SAGE is a gene expression profiling method that associates individual mRNA transcripts with 15-base tags derived from specific positions near their 3′ termini (3). The abundance of each tag provides a quantitative measure of the transcript level present within the mRNA population studied. SAGE is not dependent on pre-existing databases of expressed genes, and therefore provides an unbiased view of gene expression profiles. For the current study, SAGE libraries derived from two samples of normal colonic epithelium, two colorectal adenomas, and two colorectal cancers were analyzed.
SAGE. For the initial SAGE^3 of benign tumors, fresh adenomas were obtained from surgical specimens derived from FAP patients. Adenomas from FAP patients were employed because of the ready availability of small lesions and the certainty of inactivation of the APC pathway which initiates the formation of the majority of sporadic tumors. After histopathological verification of the neoplastic nature of the lesion (>70% neoplastic cells), total RNA was isolated by solubilizing the tissue in RNAgents Lysis Buffer (Promega, Madison, Wis.) followed by ultracentrifugation over a cesium chloride gradient. mRNA selection was performed from the purified total RNA using oligo(dT) cellulose (Life Technologies, Gaithersburg, Md.). […] Tags were extracted from the raw sequence data and, after excluding repeated ditags, linker sequences, and tags from the polyrnorphic Major Histocompatibility loci, the resulting tag libraries were compared and statistical analysis performed using SAGE software, version 4.0. Data from the libraries are publicly available at the Uniform Resource Locator (URL) address for the http file type found on the www host server that has a domain name of ncbi.nlm.nih.gov, and a path to the directory SAGE, and detailed SAGE protocols are available at the Uniform Resource Locator (URL) address for the http file type found on the www host server that has a domain name of sagenet.org, and file name of sage_protocol.htn.

[1] = normal colorectal tissue library 1
[2] = normal colorectal tissue library 2

Sequence	AD1 (SAGE tag count) (SAGE library AD1)	AD2 (SAGE tag count) (SAGE library AD2)	CA1 (SAGE tag count) (SAGE library CA1)	CA2 (SAGE tag count) (SAGE library CA2)	NC1 (SAGE tag count) (SAGE library NC1)	NC2 (SAGE tag count) (SAGE library NC2)	AD1 (SAGE tag count) (adenoma library 1)	AD2 (SAGE tag count) (adenoma library 2)	CA1 (SAGE tag count) (cancer library 1)	CA2 (SAGE tag count) (cancer library 2)	NC1 (SAGE tag count) [1]	NC2 (SAGE tag count) [2]
AACGTGCAGG (chemistry not fully specified)	13	6	7	8	29	31	–	–	–	–	–	–
ATTTCAAGAT (chemistry not fully specified)	0	2	1	0	35	21	–	–	–	–	–	–
GGCCCTGCAG (chemistry not fully specified)	1	0	5	1	14	7	–	–	–	–	–	–
AGTGGGCTCA (chemistry not fully specified)	0	1	0	0	3	8	–	–	–	–	–	–
GTAGCAGGTG (chemistry not fully specified)	11	7	7	7	24	27	–	–	–	–	–	–
GGAACTGTGA (chemistry not fully specified)	10	18	10	2	90	84	–	–	–	–	–	–
CGGACTCACT (chemistry not fully specified)	5	14	14	10	20	45	–	–	–	–	–	–
ACATTGGGTG (chemistry not fully specified)	67	34	96	33	377	334	–	–	–	–	–	–
GTCCTGAACA (chemistry not fully specified)	0	0	0	0	7	3	–	–	–	–	–	–
AGAATAGCTT (chemistry not fully specified)	3	9	11	30	44	67	–	–	–	–	–	–
ATGGTCTACG (chemistry not fully specified)	0	0	1	0	10	5	–	–	–	–	–	–
CTCAGAACTT (chemistry not fully specified)	1	0	0	0	18	3	–	–	–	–	–	–
CTGGCTATCC (chemistry not fully specified)	0	0	0	1	7	3	–	–	–	–	–	–
TACTCGGCCA (chemistry not fully specified)	–	–	–	–	–	–	0	0	1	0	10	5
TAATTTGCAT (chemistry not fully specified)	–	–	–	–	–	–	1	1	2	0	25	2
CCAACACCAG (chemistry not fully specified)	1	0	0	1	9	19	–	–	–	–	–	–
GACCAGTGGC (chemistry not fully specified)	4	0	2	0	21	44	–	–	–	–	–	–
ATATAATCTG (chemistry not fully specified)	1	4	5	5	18	14	–	–	–	–	–	–
AGGATGGTCC (chemistry not fully specified; the letters are possibly those of the target site)	5	3	6	8	34	19	–	–	–	–	–	–
ACACCCATCA (chemistry not fully specified)	1	0	5	3	2	27	–	–	–	–	–	–
TTTAACGGCC (chemistry not fully specified)	–	–	–	–	–	–	36	35	11	30	93	67
CTGTACTTGT (chemistry not fully specified)	1	1	0	0	9	5	–	–	–	–	–	–
CATAGGTTTA (chemistry not fully specified)	4	1	5	0	66	39	–	–	–	–	–	–
TGCTCCTACC (chemistry not fully specified; the letters are possibly those of the target site)	–	–	–	–	–	–	70	22	17	22	140	113
GCTGCCCTTG (chemistry not fully specified)	13	6	6	18	44	6	–	–	–	–	–	–
GCCGACCAGG (chemistry not fully specified)	15	8	19	9	46	47	–	–	–	–	–	–
